Results as given in US20030044413A1, “Methods of limiting apoptosis of cells” (Regents of the University of Minnesota, priority 1998, published 2003).
Read-outs that look alike come from different tables or passages of the source.

Legend:
[1] = Bile acid quantification by gas chromatography in primary rat hepatocytes; format: in vitro ADME; conditions: 6 h
Method: In parallel experiments, isolated rat hepatocytes (2×10^7 cells) and HuH-7 cells (2×10^6 cells) were incubated with 50 μM or 100 μM, respectively, of DCA, UDCA or DCA+UDCA for 6 h. Cells were washed 3 times with PBS, pH 7.4, harvested, centrifuged at 800×g for 5 min in a JS-4.0 Beckman rotor (Beckman Instruments, Inc., Schaumburg, Ill.) at 4° C., washed again, and the final pellet was flash-frozen in liquid nitrogen. Cells were then analyzed for intracellular bile acid concentrations by gas chromatography.
Bile acid quantification by gas chromatography. […] Quantification of bile acids was achieved using gas chromatography, by comparing the peak height response of the individual bile acids with the peak height response obtained from the internal standard, nordeoxycholic acid, which was added to each sample prior to bile acid extraction.

[2] = test system: hepatocytes; test: TUNEL assay in liver of rats fed bile acids; format: in vivo, rat; conditions: 10 days
Text: Animals and diets. Male 160-175 gram (g) Sprague-Dawley rats (Sprague-Dawley, Indianapolis, Ind.) were maintained on a 12-hour (h) light-dark cycle and fed standard laboratory chow ad libitum for 3 days. […] On day 10, the animals were sacrificed by exsanguination under ether anesthesia between 9 a.m. and 11 a.m. The livers were removed, rinsed in normal saline, and flash-frozen in liquid nitrogen. Liver tissue samples were embedded in OCT, and 5 μm-thick cryostat sections were cut and mounted on slides. […] All animals received human care in compliance with the Guide for the Care and use of Laboratory Animals, prepared by the National Academy of Sciences (NIH Publication No. 86-23, revised 1985). Terminal transferase-mediated dUTP-digoxigenin nick end labeling (TUNEL) assay. Digoxigenin-nucleotide residues were added to 3′-OH ends of double or single-stranded DNA by terminal deoxynucleotidyl transferase. Reactions were performed according to the manufacturer's recommendations (Oncor, Inc., Gaithersburg, Md.), and the specimens were then coversliped with Permount medium (Fischer Scientific, Inc., Itasca, Ill.) prior to analysis by phase-contrast microscopy using a Nikon microscope (Nikon, Inc., Melville, N.Y.). Photographs were taken using Kodak Ektar-1000 film (Eastman Kodak Co., Rochester, N.Y.).

[3] = test system: rat primary hepatocytes; test: FACS analysis of ΔΨm and ROS, rat primary hepatocytes; format: cell-based; conditions: for Peroxides Production (%) Inducer + UDCA: 100 μM UDCA pretreatment 60 min; for inhibition at 100 µM: Rattus norvegicus, Hepatocyte, 100 μM UDCA, read-out: % Inhibition of peroxides production; for Inhibition % Superoxide Anion / Inhibition % _Ψm: inhibition by UDCA
Method: A ΔΨm and ROS measurement. ΔΨm and ROS production were measured by FACScan (Becton Dickinson) analysis. Freshly isolated rat hepatocytes were cultured for 3 h as described above and then incubated with William's E medium supplemented with either 100 μM DCA, 100 μM UDCA, equal molar amounts of both, or no bile acid (control), for 6 h. Rat hepatocytes were also cultured with either 1% ethanol, 100 μM UDCA, ethanol+UDCA, or no addition (control) for 4 h. HuH-7 cells, Hep G2 cells, and human osteogenic sarcoma Saos-2 cells were incubated with TGF-β1, anti-Fas antibody or okadaic acid, respectively, for 48 h under the same conditions as outlined above. For combination studies, cells were pretreated with UDCA or hyodeoxycholic acid for 60 min prior to addition of DCA, ethanol, TGF-β1, anti-Fas antibody or okadaic acid. Aliquots of 1.0×10^6 cells were incubated for 15 min at 37° C. with 50 nM 3,3′-dihexyloxacarbocyanine iodide [DiOC6(3)], 2 μM dihydroethidium (HE), or 5 μM 2′,7′-dichlorofluorescin diacetate (H2DCFDA; Molecular Probes, Inc. Eugene, Oreg.) and analyzed by cytofluorometry (Cathcart et al., Anal. Biochem., 134, 111-116 (1983); Zamzami et al., J. Exp. Med., 181, 1661-1672 (1 995); Carter et al., J. Leukocyte Biol., 55, 253-258 (1994)).
Rat primary hepatocytes were incubated with 100 μM DCA and 1% ETOH for 6 h and 4 h, respectively; HuH-7 cells with 1 nM TGF-β1 for 48 h; Hep G2 cells with 0.5 μg/ml anti-Fas antibody (CH-11) for 48 h, and Saos-2 cells with 50 nM okadaic acid (OA) for 48 h. In each combination group, cells were pretreated with 100 μM UDCA alone for 60 min prior to addition of the inducer. Aliquots of 1.0×10^6 cells were incubated for 15 min at 37° C. with 5 μM 2′,7′-dichlorofluorescin diacetate (H2DCFDA) and analyzed by cytofluorometry.

[4] = test system: calcein-loaded isolated rat liver mitochondria; test: MPT fluorimetric assay (calcein release)
Method: The fluorimetric assay was performed after loading the mitochondria with 10 μM calcein-acetoxymethyl ester (AM) (Molecular Probes Inc., Eugene, Oreg.) for 30 min at 37° C. in chelex-100 treated resuspension buffer before purification by sucrose-percoll gradient centrifugation (Botla et al., J. Pharmacol. Exp. Ther., 272, 930-938 (1995)). The assays were performed using calcein-loaded isolated mitochondria (1 mg protein/ml) in chelex-100-treated respiration buffer at 37° C. For the coincubation assays, the samples were preincubated for 10 min with 500 μM UDCA prior to addition of 200 μM DCA. The fluorescence of calcein was monitored by excitation and emission wavelengths of 490 nm and 515 nm, respectively, using a Perkin-Elmer luminescence spectrometer model LS-5B (Perkin-Elmer Ltd., Buckinghamshire, England).

[5] = test system: cytochrome c; test: Cytochrome c release from isolated mitochondria after MPT; set-up: species or system rat; conditions: substance alone on isolated mitochondria
Method: Mitochondria isolation. […] In short, animals were sacrificed by exsanguination under ether anesthesia and the livers removed and rinsed in normal saline. Approximately 10 g of minced liver was homogenized at a speed of 800 rpm using 6 complete up and down strokes with a speed controlled mechanical skill drill and a teflon pestle (Tri-R Model K41, Tri-R Instruments, Rockville Center, N.Y.) in an ice-cold solution of 70 mM sucrose, 220 mM mannitol, 1 mM EGTA and 10 mM HEPES, pH 7.4 as a 10% (wt/vol) homogenate. The homogenate was centrifuged at 600×g for 10 min at 4° C. in an SS-34 rotor in a Sorvall RC5C centrifuge (Sorvall Instruments, Newtown, Conn.), and the postnuclear supernatant was centrifuged at 7,000×g for 10 min at 4° C. […] The pellet was resuspended in 2 mL of homogenate buffer, and 1 mL of the resuspended pellet was carefully layered onto a 35-mL self-generating gradient containing 0.25 M sucrose, 1 mM EGTA and percoll (Pharmacia Fine Chemicals, Piscataway, N.J.) (75:25, vol/vol). The mitochondria were purified by centrifugation at 43,000×g for 30 min at 4° C. using a Beckman Ti60 rotor and a Beckman ultracentrifuge model L8-55 (Beckman Instruments, Inc., Schaumburg, Ill.). The clear supernatant solution removed and the lower turbid layer was resuspended in 30 mL of wash buffer containing 0.1 M KCl, 5 mM 3-(N-morpholino)-propane sulfonic acid (MOPS), and 1 mM EGTA, at pH 7.4 and centrifuged at 7,000×g for 10 min at 4° C. The resulting mitochondria pellet was washed in wash buffer two times. A final wash was carried out in chelex-100-treated buffer (Bio-Rad Laboratories, Richmond, Va.; 200-400 mesh, potassium form) without EGTA. The pellet was suspended in 4 mL of chelex-100-treated resuspension buffer containing 125 mM sucrose, 50 mM KCl, 5 mM HEPES, and 2 mM KH2PO4. The usual yield of mitochondria was approximately 25 mg of protein per gram of liver tissue. Mitochondria were used for experiments within 3 h of isolation. Aliquots were removed for examining the purity of the mitochondria preparation.
Measurement of MPT and determination of cytochrome c content in supernatants and mitochondrial pellets after MPT. The MPT was assessed using a spectrophotometric assay measuring high amplitude rapid changes in mitochondria volume. Mitochondria (1 mg protein) were incubated in 1 ml of chelex-100-treated respiration buffer (0.1 M NaCl, 10 mM MOPS, pH 7.4) for 10 min at 25° C. and swelling was monitored at 540 nm in a Beckman DU 64 spectrophotometer. […] Basal values of mitochondria absorbance were measured for 5 min, and the optical density was monitored for an additional 5 min after addition 200 μM DCA or 80 μM phenylarsine oxide (PhAsO; Sigma Chemical Co.). […]

[6] = incubated with 50 μM DCA and UDCA combined
[7] = incubated with 50 μM of the individual bile acid
[8] = rats fed chow with 0.4% bile acid

C[C@H](CCC(=O)O)[C@H]1CC[C@H]2[C@@H]3CC[C@@H]4C[C@H](O)CC[C@]4(C)[C@H]3C[C@H](O)[C@]12C [DCA, deoxycholic acid]
intracellular concentration of the bile acid [1, 6]: 380.3±32.0 nmol/10^8 cells | intracellular concentration of the bile acid [1, 7]: 49.5±9.9 nmol/10^8 cells | change in TUNEL-positive cells ([2]; FIG. 1 legend, 0.4% in chow): significant increase | increase in TUNEL-positive liver cells from control values [2, 8]: ~40 fold | liver cells with positive nuclear staining for fragmented DNA (TUNEL) [2, 8]: 11% | Peroxides Production (%) Inducer ([3]; 100 μM DCA, 6 h, hepatocytes): 12.8 ± 0.9%

C[C@H](CCC(=O)O)[C@H]1CC[C@H]2[C@@H]3[C@@H](O)C[C@@H]4C[C@H](O)CC[C@]4(C)[C@H]3CC[C@]12C [UDCA, ursodeoxycholic acid]
intracellular concentration of the bile acid [1, 6]: 263.8±39.3 nmol/10^8 cells | intracellular concentration of the bile acid [1, 7]: 306.0±135.1 nmol/10^8 cells | increase in TUNEL-positive liver cells from control values [2, 8]: 2 fold | Peroxides Production (%) Inducer + UDCA ([3]; 100 μM DCA 6 h): 4.4 ± 1.5 % | Peroxides Production (%) Inducer + UDCA ([3]; 1% ETOH 4 h): 10.7 ± 3.6 % | inhibition at 100 µM ([3]; inducer DCA, hepatocytes): 65.8 ± 12.4% | inhibition at 100 µM ([3]; inducer ETOH, hepatocytes): 39.5 ± 12.6% | Inhibition % Superoxide Anion ([3]; inducer DCA, hepatocytes): 93.5 ± 17.2% | Inhibition % _Ψm ([3]; inducer DCA, hepatocytes): 60.2 ± 6.1 % | Inhibition % Superoxide Anion ([3]; inducer ETOH, hepatocytes): 86.6 ± 5.6% | Inhibition % _Ψm ([3]; inducer ETOH, hepatocytes): 61.7 ± 33.9% | inhibition at 500 µM ([4]; Rattus norvegicus, 200 μM DCA, 500 μM UDCA pretreatment 10 min, read-out: inhibition of DCA-induced calcein release): ~50%

C[C@H](CCC(=O)O)[C@H]1CC[C@H]2[C@@H]3C[C@H](O)[C@@H]4C[C@H](O)CC[C@]4(C)[C@H]3CC[C@]12C [hyodeoxycholic acid]
effect on DCA-induced calcein release ([4]; 500 μM HDCA pretreatment): did not decrease DCA-induced mitochondrial swelling (FIG. 8B) or prevent calcein release

C=C1[C@@H](O)[C@@H]2O[C@]3(CC[C@H](/C=C/[C@@H](C)[C@@H]4CC(C)=C[C@@]5(O[C@H](C[C@@](C)(O)C(=O)O)CC[C@H]5O)O4)O3)CC[C@H]2O[C@@H]1[C@@H](O)C[C@H](C)[C@H]1O[C@@]2(CCCCO2)CC[C@H]1C [okadaic acid]
translocation of cytochrome c to the supernatants [5]: nor did they cause translocation of cytochrome c

TGF-β1: transforming growth factor β1, nonmembrane damaging inducer of apoptosis
translocation of cytochrome c to the supernatants [5]: nor did they cause translocation of cytochrome c
